Measured values from PubChem BioAssay AID192 (DTP/NCI, 2004).
Values joined by “and” are separate entries in the source; they are usually repeats but may differ in a detail not shown here. Equal values may be shown once. Inconclusive results and toxic doses are left out.

System: BDF1 mice, B16 melanoma ip, median survival T/C
Test: NCI In Vivo Anticancer Drug Screen. Data for tumor model B16 Melanoma (intraperitoneal) in B6D2F1 (BDF1) mice
Conditions: endpoint: median survival time, higher = longer survival
Outline: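 Survival or tumor size is measured after treatment of tumor-bearing mice and normalised to the vehicle-treated control group.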

[1] = dose: 25.0 mg/kg/injection, schedule: Q01DX009 (ip), vehicle: Klucel (hydroxypropylcellulose) (HPC)
[2] = dose: 50.0 mg/kg/injection, schedule: Q01DX009 (ip), vehicle: Klucel (hydroxypropylcellulose) (HPC)
[3] = dose: 100.0 mg/kg/injection, schedule: Q01DX009 (ip), vehicle: Klucel (hydroxypropylcellulose) (HPC)
[4] = dose: 200.0 mg/kg/injection, schedule: Q01DX009 (ip), vehicle: Klucel (hydroxypropylcellulose) (HPC)
[5] = dose: 400.0 mg/kg/injection, schedule: Q01DX009 (ip), vehicle: Klucel (hydroxypropylcellulose) (HPC)
[6] = dose: 12.5 mg/kg/injection, schedule: Q01DX009 (ip), vehicle: saline with Tween-80
[7] = dose: 50.0 mg/kg/injection, schedule: Q01DX009 (ip), vehicle: saline with Tween-80
[8] = dose: 100.0 mg/kg/injection, schedule: Q01DX009 (ip), vehicle: saline with Tween-80
[9] = dose: 6.25 mg/kg/injection, schedule: Q01DX009 (ip), vehicle: saline
[10] = dose: 12.5 mg/kg/injection, schedule: Q01DX009 (ip), vehicle: saline
[11] = dose: 25.0 mg/kg/injection, schedule: Q01DX009 (ip), vehicle: saline
[12] = dose: 100.0 mg/kg/injection, schedule: Q04DX003 (ip), vehicle: saline with Tween-80
[13] = dose: 200.0 mg/kg/injection, schedule: Q04DX003 (ip), vehicle: saline with Tween-80
[14] = dose: 200.0 mg/kg/injection, schedule: Q04DX003 (ip), vehicle: Klucel (hydroxypropylcellulose) (HPC)
[15] = dose: 400.0 mg/kg/injection, schedule: Q04DX003 (ip), vehicle: Klucel (hydroxypropylcellulose) (HPC)
[16] = dose: 3.12 mg/kg/injection, schedule: Q01DX009 (ip), vehicle: saline
[17] = dose: 100.0 mg/kg/injection, schedule: Q04DX003 (ip), vehicle: Klucel (hydroxypropylcellulose) (HPC)
[18] = dose: 400.0 mg/kg/injection, schedule: Q04DX003 (ip), vehicle: saline with Tween-80

With `CCCCCCCCCC1(C)OCC(COC(N)=O)O1` (stereo unspecified) the T/C [1] was 90 % of control, the T/C [2] was 90 % of control and the T/C [3] was 92 % of control. The T/C [4] was 95 % of control and the T/C [5] was 95 % of control.

`CC(=O)Nc1c(Cl)c(Cl)c2c(c1Cl)Cc1cc(Br)ccc1-2` was tested, and the T/C (dose: 1.5 mg/kg/injection, schedule: Q01DX009 (ip), vehicle: saline with Tween-80) was 94 % of control, the T/C (dose: 3.0 mg/kg/injection, schedule: Q01DX009 (ip), vehicle: saline with Tween-80) was 94 % of control and the T/C (dose: 6.0 mg/kg/injection, schedule: Q01DX009 (ip), vehicle: saline with Tween-80) was 100 % of control. For the same compound, the T/C (dose: 12.0 mg/kg/injection, schedule: Q01DX009 (ip), vehicle: saline with Tween-80) was 92 % of control and the T/C [6] was 97 % of control.

With `C1CC[N-]CC1.CC(=N\O)/C(C)=N/O.CC(=N\O)/C(C)=N/O.[CH3-].[Co+2]` the T/C [1] was 105 % of control, the T/C [2] was 91 % of control and the T/C [3] was 88 % of control.

For `CC[S][Hg][Cl]`, the T/C (dose: 0.75 mg/kg/injection, schedule: Q04DX003 (ip), vehicle: saline with Tween-80) was 93 % of control, the T/C (dose: 1.5 mg/kg/injection, schedule: Q04DX003 (ip), vehicle: saline with Tween-80) was 100 % of control and the T/C (dose: 3.0 mg/kg/injection, schedule: Q04DX003 (ip), vehicle: saline with Tween-80) was 97 % of control. For the same compound, the T/C (dose: 6.25 mg/kg/injection, schedule: Q04DX003 (ip), vehicle: saline with Tween-80) was 86 % of control.

`CC1OC(OCC2OC(Oc3c(-c4ccc(O)c(OS(=O)(=O)O)c4)oc4cc(O)cc(O)c4c3=O)C(O)C(O)C2O)C(O)C(O)C1O` (stereo unspecified) was tested, and the T/C (dose: 4.0 mg/kg/injection, schedule: Q01DX009 (ip), vehicle: saline) was 101 % of control, the T/C (dose: 8.0 mg/kg/injection, schedule: Q01DX009 (ip), vehicle: saline) was 105 % of control and the T/C (dose: 16.0 mg/kg/injection, schedule: Q01DX009 (ip), vehicle: saline) was 101 % of control. For the same compound, the T/C (dose: 32.0 mg/kg/injection, schedule: Q01DX009 (ip), vehicle: saline) was 100 % of control and the T/C (dose: 64.0 mg/kg/injection, schedule: Q01DX009 (ip), vehicle: saline) was 103 % of control.

In the case of `NC(CNC(=O)CBr)C(=O)O` (stereo unspecified), the T/C (dose: 6.25 mg/kg/injection, schedule: Q01DX009 (ip), vehicle: water) is reported as 109 % of control, the T/C (dose: 12.5 mg/kg/injection, schedule: Q01DX009 (ip), vehicle: water) is reported as 104 % of control and the T/C (dose: 25.0 mg/kg/injection, schedule: Q01DX009 (ip), vehicle: water) is reported as 122 % of control.

`CC(Br)C(=O)NC(Cc1ccccc1)C(=O)O` (stereo unspecified) was tested, and the T/C [7] was 94 % of control and the T/C [8] was 91 % of control.

In the case of `O=C1OC2CC1(O)CC(O)C2O` (stereo unspecified), the T/C [9] is reported as 111 % of control, the T/C [10] is reported as 92 % of control and the T/C [11] is reported as 101 % of control. The T/C (dose: 50.0 mg/kg/injection, schedule: Q04DX003 (ip), vehicle: saline with Tween-80) was 103 % of control, the T/C [12] was 97 % of control and the T/C [13] was 94 % of control.

`COC(=O)/C(C)=C/C=C/C(OC)C(OC(N)=O)/C(C)=C/C(C)C(O)C(CC(C)CC1=C(N)C(=O)C=C(N)C1=O)OC` (stereo unspecified) was tested, and the T/C (dose: 12.5 mg/kg/injection, schedule: Q01DX005 (ip), vehicle: other) was 94 % of control, the T/C (dose: 25.0 mg/kg/injection, schedule: Q01DX005 (ip), vehicle: other) was 95 % of control and the T/C (dose: 50.0 mg/kg/injection, schedule: Q01DX005 (ip), vehicle: other) was 108 % of control. The T/C (dose: 100.0 mg/kg/injection, schedule: Q01DX005 (ip), vehicle: other) was 93 % of control.

With `CC(C)(CO)C(O)C(=O)NNCc1ccccc1` (stereo unspecified) the T/C (dose: 25.0 mg/kg/injection, schedule: Q04DX003 (ip), vehicle: Klucel (hydroxypropylcellulose) (HPC)) was 102 % of control, the T/C (dose: 25.0 mg/kg/injection, schedule: Q04DX003 (ip), vehicle: saline) was 95 % of control and the T/C (dose: 50.0 mg/kg/injection, schedule: Q04DX003 (ip), vehicle: Klucel (hydroxypropylcellulose) (HPC)) was 90 % of control. For the same compound, the T/C (dose: 50.0 mg/kg/injection, schedule: Q04DX003 (ip), vehicle: saline) was 99 % of control, the T/C (dose: 100.0 mg/kg/injection, schedule: Q04DX003 (ip), vehicle: saline) was 100 % of control and the T/C [14] was 92 % of control. For the same compound, the T/C (dose: 200.0 mg/kg/injection, schedule: Q04DX003 (ip), vehicle: saline) was 100 % of control, the T/C [15] was 95 % of control and the T/C (dose: 400.0 mg/kg/injection, schedule: Q04DX003 (ip), vehicle: saline) was 91 % of control.

`Cc1cccc(/C=N/OCCC(C)C)n1` was tested, and the T/C [7] was 107 % of control and the T/C [8] was 95 % of control.

For `O=C1N(CC2CO2)CCN1CC1CO1` (stereo unspecified), the T/C (dose: 12.5 mg/kg/injection, schedule: Q01DX009 (ip), vehicle: suspension in saline) was 106 % of control, the T/C (dose: 25.0 mg/kg/injection, schedule: Q01DX009 (ip), vehicle: suspension in saline) was 124 % of control and the T/C (dose: 100.0 mg/kg/injection, schedule: Q01DX009 (ip), vehicle: suspension in saline) was 193 % of control.

With `CN1C2CCC1CC(OC1c3ccccc3CCc3ccccc31)C2` (stereo unspecified) the T/C [16] was 90 % of control, the T/C [9] was 97 % of control and the T/C [10] was 97 % of control.

With `Cc1ccc(NC(=O)c2ccc(C(=O)Nc3ccc(C)cc3)cc2)cc1` the T/C [6] was 117 % of control, the T/C (dose: 25.0 mg/kg/injection, schedule: Q01DX009 (ip), vehicle: saline with Tween-80) was 93 % of control and the T/C [7] was 100 % of control.

With `COc1ccc(OC)c(/C=C/C(=O)c2ccc(Cl)cc2)c1` the T/C [3] was 92 % of control, the T/C [17] was 103 % of control and the T/C [4] was 92 % of control. The T/C [14] was 109 % of control, the T/C [5] was 89 % of control and the T/C [15] was 103 % of control.

`Cc1c(Cl)cc(Cl)c(N)c1Cl` was tested, and the T/C [12] was 86 % of control, the T/C [13] was 93 % of control and the T/C [18] was 90 % of control.

With `CC(CN1CCN(CCOCCO)CC1)CN1c2ccccc2Sc2ccccc21` (stereo unspecified) the T/C (dose: 1.56 mg/kg/injection, schedule: Q01DX009 (ip), vehicle: saline) was 108 % of control, the T/C [16] was 97 % of control and the T/C [9] was 102 % of control. The T/C [11] was 100 % of control and 101 % of control.

With `CC1CC[N-]CC1.CC1CC[N-]CC1.CC1CC[N-]CC1.CC1CC[N-]CC1.CS(C)=O.CS(C)=O.[Cl-].[Cl-].[Cl-].[Cl-].[Pt+4].[Rh+3]` the T/C (dose: 0.2 mg/kg/injection, schedule: Q01DX009 (ip), vehicle: water) was 100 % of control, the T/C (dose: 0.4 mg/kg/injection, schedule: Q01DX009 (ip), vehicle: water) was 104 % of control and the T/C (dose: 0.8 mg/kg/injection, schedule: Q01DX009 (ip), vehicle: water) was 106 % of control. The T/C (dose: 1.5 mg/kg/injection, schedule: Q01DX009 (ip), vehicle: water) was 106 % of control and the T/C (dose: 3.0 mg/kg/injection, schedule: Q01DX009 (ip), vehicle: water) was 106 % of control.

`C[n+]1noc([O-])c1-c1ccccc1` was tested, and the T/C [7] was 101 % of control, the T/C [8] was 97 % of control and the T/C (dose: 200.0 mg/kg/injection, schedule: Q01DX009 (ip), vehicle: saline with Tween-80) was 103 % of control.

In the case of `COc1c([N+](=O)[O-])cc(C(=O)O)cc1[N+](=O)[O-]`, the T/C [3] is reported as 92 % of control and the T/C [4] is reported as 92 % of control.

With `CC[CH2][Pb]([CH2]CC)([CH2]CC)[N]1C(=O)c2ccccc2C1=O` the T/C (dose: 3.12 mg/kg/injection, schedule: Q01DX009 (ip), vehicle: Klucel (hydroxypropylcellulose) (HPC)) was 109 % of control and the T/C (dose: 6.25 mg/kg/injection, schedule: Q01DX009 (ip), vehicle: Klucel (hydroxypropylcellulose) (HPC)) was 101 % of control.

With `CS(=N)(=O)c1ccccc1` (stereo unspecified) the T/C [12] was 89 % of control, the T/C [13] was 100 % of control and the T/C [18] was 123 % of control.

For `COc1cc2c(c(OC)c1OC)-c1ccc(OC)c(=O)cc1[C@@H](NC(=O)c1ccccc1)CC2`, the T/C (dose: 1.0 mg/kg/injection, schedule: Q01DX009 (ip), vehicle: Klucel (hydroxypropylcellulose) (HPC)) was 173 % of control and 190 % of control and the T/C (dose: 2.0 mg/kg/injection, schedule: Q01DX009 (ip), vehicle: Klucel (hydroxypropylcellulose) (HPC)) was 156 % of control and 161 % of control.

In the case of `O=C(O)C(Cc1cc(I)c(O)c(I)c1)c1ccccc1` (stereo unspecified), the T/C [2] is reported as 100 % of control, the T/C [3] is reported as 109 % of control and the T/C [4] is reported as 100 % of control.

In the case of `Cc1ccc(NC(=S)N(C)C)cc1Cl`, the T/C [3] is reported as 100 % of control, the T/C [17] is reported as 104 % of control and the T/C [4] is reported as 88 % of control. The T/C [14] was 90 % of control, the T/C [5] was 88 % of control and the T/C [15] was 95 % of control.
